# Measurements: US4091097A, “Treatment of elevated histamine and uric acid levels” (Zaidan Hojin Biseibutsu Kagaku Kenkyu Kai, priority 1973, dated 1978)
# pIC50: −log10 of the molar value. Like-named read-outs stand apart in the source and are kept apart here.
# Key:
# [1] = test system: pyrexia induced by TTG No. 2; experiment: Antipyretic Activity in Pyrexia-Induced Rabbits; type: in vivo, Japanese rabbits; settings: 200 mg./kg. oral
# Procedure: Common white male Japanese rabbits, 2.0 - 3.0 kg. body weight, were injected through the ear vein with 20 μg./kg. of a pyrexia inducer TTG No. 2, purified polysaccharide preparation obtained from Pseudomonas aeruginosa (marketed by Fujisawa Pharmaceutical Company, Japan), and the body temperature was monitored with a rectal thermister-type thermometer. Three hours prior to the TTG injection four rabbits in each experimental section orally received the test drug in the dose of 200 mg./kg. One group received aspirin in a dose of 100 mg./kg and a control group no drug.
# [2] = test system: acetic acid-induced stretching movements; experiment: Analgesic Activity in mice (acetic acid stretching); type: in vivo, mice (DDY Strain); settings: control (no drug) 53
# Procedure: Male mice of the DDY Strain having mean body weight of 20 g. were divided to the groups of 10 animals each, to which compounds of this invention or aminopyrine in saline solution were administered intraperitoneally (i.p.). The dosage was 200, 50 or 12.5 mg./kg. Then 30 minutes later, 0.2 ml. per 20 g. body weight of 0.7% acetic acid in saline was injected intraperitoneally and the number of characteristic stretching movements counted for 20 minute period and compared with a control group receiving no analgesic.
# histidine decarboxylase = target: T1, histidine decarboxylase (Rattus norvegicus, UniProt P16453); experiment: Inhibition of Histidine Decarboxylase (14C-histamine formation); type: biochemical, fetal rats
# T1 construct: a crude enzyme preparation obtained from fetal rats; from tissue
# T1 sequence (P16453 1-656): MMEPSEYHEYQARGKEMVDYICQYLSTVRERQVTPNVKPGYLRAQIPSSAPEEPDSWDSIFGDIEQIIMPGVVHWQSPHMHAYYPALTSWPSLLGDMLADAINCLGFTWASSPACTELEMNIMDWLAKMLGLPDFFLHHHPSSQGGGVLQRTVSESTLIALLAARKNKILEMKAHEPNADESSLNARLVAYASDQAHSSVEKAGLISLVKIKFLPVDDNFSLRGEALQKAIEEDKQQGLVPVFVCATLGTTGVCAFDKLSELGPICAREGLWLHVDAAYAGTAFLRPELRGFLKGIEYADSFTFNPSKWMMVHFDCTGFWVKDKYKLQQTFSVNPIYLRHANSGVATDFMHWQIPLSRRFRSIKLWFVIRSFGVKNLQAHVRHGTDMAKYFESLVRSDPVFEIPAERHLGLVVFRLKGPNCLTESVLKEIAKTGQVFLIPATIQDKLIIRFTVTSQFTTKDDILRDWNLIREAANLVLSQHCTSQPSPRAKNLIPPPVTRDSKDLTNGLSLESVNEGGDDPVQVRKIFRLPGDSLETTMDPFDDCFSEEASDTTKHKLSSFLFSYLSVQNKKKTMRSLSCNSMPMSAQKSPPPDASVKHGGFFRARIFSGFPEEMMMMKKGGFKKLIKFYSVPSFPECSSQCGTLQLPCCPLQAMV
# Procedure: After two hours of incubation at 37° C., the histamine 2-^14 C formed was collected on an ion exchange resin ("Amberlite" CG-50, ammonia type) from which, after washing with water, the histamine was liberated in 1N aqueous ammonia solution and radioactivity was measured.
# [3] = 2 hrs. after TTG, control (no drug) 1.2
# [4] = 4 hrs. after TTG, control (no drug) 1.6
# [5] = pH 6.8, two hours at 37° C., read-out: Histidine Decarboxylase Inhibition ID50
smiles,measurement,setting,value
"Cc1c(N(C)C)c(=O)n(-c2ccccc2)n1C [Aminopyrine, reference compound]",Antipyretic Activity: Elevation of Body Temperature,[1]; [3],0.4 °C
same,Antipyretic Activity: Elevation of Body Temperature,[1]; [4],0.3 °C
same,Analgesic Activity: Stretching Count (20 minutes),[2]; 50 mg./kg. i.p.,8
same,Analgesic Activity: Stretching Count (20 minutes),[2]; 200 mg./kg. i.p.,2
O=C(Nc1ccc(O)c(Cl)c1)c1ccccc1O [Compound 2],pIC50,histidine decarboxylase; [5],5.60
same,Antipyretic Activity: Elevation of Body Temperature,[1]; [3],0.6 °C
same,Antipyretic Activity: Elevation of Body Temperature,[1]; [4],0.5 °C
same,Analgesic Activity: Stretching Count (20 minutes),[2]; 50 mg./kg. i.p.,30
same,Analgesic Activity: Stretching Count (20 minutes),[2]; 200 mg./kg. i.p.,12
O=C(Nc1cc(Cl)c(O)c(Cl)c1)c1ccc(O)cc1O [Compound 4],pIC50,histidine decarboxylase; [5],7.55
same,Antipyretic Activity: Elevation of Body Temperature,[1]; [3],0.5 °C
same,Antipyretic Activity: Elevation of Body Temperature,[1]; [4],0.4 °C
same,Analgesic Activity: Stretching Count (20 minutes),[2]; 50 mg./kg. i.p.,13
same,Analgesic Activity: Stretching Count (20 minutes),[2]; 200 mg./kg. i.p.,6
O=C(Nc1cc(Cl)c(O)c(C(=O)O)c1)c1ccccc1O [Compound 7],pIC50,histidine decarboxylase; [5],6.96
same,Antipyretic Activity: Elevation of Body Temperature,[1]; [3],0.6 °C
same,Antipyretic Activity: Elevation of Body Temperature,[1]; [4],0.5 °C
same,Analgesic Activity: Stretching Count (20 minutes),[2]; 50 mg./kg. i.p.,40
same,Analgesic Activity: Stretching Count (20 minutes),[2]; 200 mg./kg. i.p.,14
Cc1ccc(C(=O)Nc2cc(Cl)c(O)c(Cl)c2)c(O)c1 [Compound 8],pIC50,histidine decarboxylase,7.02
same,Antipyretic Activity: Elevation of Body Temperature,[1]; [3],0.6 °C
same,Antipyretic Activity: Elevation of Body Temperature,[1]; [4],0.5 °C
same,Analgesic Activity: Stretching Count (20 minutes),[2]; 50 mg./kg. i.p.,40
same,Analgesic Activity: Stretching Count (20 minutes),[2]; 200 mg./kg. i.p.,21
O=C(Nc1cc(Cl)c(O)c(Cl)c1)c1ccc(F)cc1O [Compound 9],pIC50,histidine decarboxylase; [5],7.05
same,Antipyretic Activity: Elevation of Body Temperature,[1]; [3],0.6 °C
same,Antipyretic Activity: Elevation of Body Temperature,[1]; [4],0.6 °C
same,Analgesic Activity: Stretching Count (20 minutes),[2]; 50 mg./kg. i.p.,35
same,Analgesic Activity: Stretching Count (20 minutes),[2]; 200 mg./kg. i.p.,20
COc1c(Cl)cc(NC(=O)c2ccccc2O)cc1Cl [Compound 11],pIC50,histidine decarboxylase; [5],6.68
Cc1cc(NC(=O)c2ccccc2O)cc(Cl)c1O [Compound 12],pIC50,histidine decarboxylase; [5],6.92
O=C(Nc1cc(F)c(O)c(Cl)c1)c1ccccc1O [Compound 13],pIC50,histidine decarboxylase; [5],6.64
CCc1cc(NC(=O)c2ccc(O)cc2O)cc(F)c1OC [Compound 16],pIC50,histidine decarboxylase; [5],6.09
CCc1ccc(C(=O)Nc2cc(Br)c(O)c(CC)c2)c(O)c1 [Compound 17],pIC50,histidine decarboxylase; [5],6.34
CCc1ccc(O)c(C(=O)Nc2cc(Br)c(O)c(CC)c2)c1 [Compound 18],pIC50,histidine decarboxylase; [5],6.15
CCOc1ccc(NC(=O)c2ccc(F)cc2O)cc1Cl [Compound 21],pIC50,histidine decarboxylase; [5],6.30
O=C(Nc1cc(Cl)c(O)c(C(=O)O)c1)c1cc(O)ccc1O [Compound 23],pIC50,histidine decarboxylase; [5],6.30
COc1c(F)cc(NC(=O)c2cc(Cl)ccc2O)cc1Cl [Compound 26],pIC50,histidine decarboxylase; [5],6.16
CCc1cc(NC(=O)c2ccc(C)cc2O)cc(C(=O)OC)c1O [Compound 28],pIC50,histidine decarboxylase; [5],6.10
CCc1cc(NC(=O)c2cc(C)ccc2O)cc(C(=O)OC)c1O [Compound 29],pIC50,histidine decarboxylase; [5],6.01
CC(=O)Oc1cc(O)ccc1C(=O)Nc1cc(C)c(OC(C)=O)c(Cl)c1 [Compound 34],pIC50,histidine decarboxylase; [5],6.41
CC(=O)Oc1ccc(O)cc1C(=O)Nc1cc(C)c(OC(C)=O)c(Cl)c1 [Compound 35],pIC50,histidine decarboxylase; [5],6.22
CCC(=O)Oc1ccc(NC(=O)c2ccc(O)cc2OC(=O)CC)cc1Br [Compound 36],pIC50,histidine decarboxylase; [5],6.31
CC(=O)Oc1cc(F)ccc1C(=O)Nc1cc(C)c(OC(C)=O)c(Br)c1 [Compound 37],pIC50,histidine decarboxylase; [5],6.38
CCC(=O)Oc1ccccc1C(=O)Nc1cc(Cl)c(N)c(Cl)c1 [Compound 38],pIC50,histidine decarboxylase; [5],6.70
CC(=O)Oc1ccc(C(=O)Nc2cc(Cl)c(O)c(Cl)c2)c(OC(C)=O)c1 [Compound 39],pIC50,histidine decarboxylase; [5],6.72
CC(=O)Oc1ccc(OC(C)=O)c(C(=O)Nc2cc(Cl)c(O)c(Cl)c2)c1 [Compound 40],pIC50,histidine decarboxylase; [5],6.51
CCOC(=O)c1cc(NC(=O)c2ccccc2OC(=O)c2ccccc2)cc(Cl)c1O [Compound 41],pIC50,histidine decarboxylase; [5],6.49
CCOC(=O)c1cc(NC(=O)c2ccccc2OC(C)=O)cc(Cl)c1O [Compound 44],pIC50,histidine decarboxylase; [5],6.64
